# Laboratory results: ChEMBL document CHEMBL1201862, “PubChem BioAssay data set” (2004)
#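 Five compound concentrations were applied to cells in 96-well plates for 48 hours; endpoints were derived by simple linear interpolation of the resulting dose-response curve. GI50: concentration for 50% inhibition of growth.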 Activity calls are given as the source filed them. Rule as the data show it: active = GI50 up to about 1.1 µM and inactive = higher.
# Experiments:
# Assay in all cases: NCI tumour cell line growth inhibition, 48 h
# SF-295 = test system: SF-295
# RPMI-8226 = test system: RPMI-8226
# OVCAR-3 = test system: OVCAR-3
# NCI-H460 = test system: NCI-H460
# U-251 = test system: U-251
# HCT-116 = test system: HCT-116
# HOP-92 = test system: HOP-92
# HL-60 = test system: HL-60
# SF-268 = test system: SF-268
# K562 = test system: K562
# IGROV-1 = test system: IGROV-1
# SR = test system: SR
# OVCAR-4 = test system: OVCAR-4
# HCC 2998 = test system: HCC 2998
# SW-620 = test system: SW-620
# SNB-75 = test system: SNB-75
# MOLT-4 = test system: MOLT-4
# SK-MEL-5 = test system: SK-MEL-5
# DU-145 = test system: DU-145
# MDA-MB-231 = test system: MDA-MB-231
Structure (SMILES),GI50 (SF-295),GI50 (RPMI-8226),GI50 (OVCAR-3),GI50 (NCI-H460),GI50 (U-251),GI50 (HCT-116),GI50 (HOP-92),GI50 (HL-60),GI50 (SF-268),GI50 (K562),GI50 (IGROV-1),GI50 (SR),GI50 (OVCAR-4),GI50 (HCC 2998),GI50 (SW-620),GI50 (SNB-75),GI50 (MOLT-4),GI50 (SK-MEL-5),GI50 (DU-145),GI50 (MDA-MB-231)
Cc1c(C(=O)/C=C/c2ccc([N+](=O)[O-])cc2)[n+]([O-])c2ccccc2[n+]1[O-],> 100 µM (inactive),33.6 µM (inactive),95.7 µM (inactive),62.2 µM (inactive),92.5 µM (inactive),48.4 µM (inactive),31.8 µM (inactive),0.923 µM (active),> 100 µM (inactive),27 µM (inactive),55.7 µM (inactive),43 µM (inactive),24.8 µM (inactive),> 100 µM (inactive),67 µM (inactive),41.4 µM (inactive),20.7 µM (inactive),–,–,–
COC(=O)[C@@]1(C)/C(=N/NS(=O)(=O)c2ccc(C)cc2)CCC[C@@H]1C,> 100 µM (inactive),30.8 µM (inactive),> 100 µM (inactive),34 µM (inactive),> 100 µM (inactive),> 100 µM (inactive),> 100 µM (inactive),6.37 µM (inactive),> 100 µM (inactive),74.3 µM (inactive),> 100 µM (inactive),19.8 µM (inactive),> 100 µM (inactive),> 100 µM (inactive),–,> 100 µM (inactive),> 100 µM (inactive),> 100 µM (inactive),–,–
O=C1C=CC(=O)C2=C1[C@@H](O)C1CC=CC3C(=O)O[C@@H]2C31 (some centres not stated),39.5 µM (inactive),19.9 µM (inactive),21 µM (inactive),> 55.8 µM (inactive),> 77.8 µM (inactive),19.8 µM (inactive),26.2 µM (inactive),18.2 µM (inactive),43.1 µM (inactive),18.5 µM (inactive),14.8 µM (inactive),4.65 µM (inactive),13.2 µM (inactive),18.5 µM (inactive),22.4 µM (inactive),24.9 µM (inactive),20 µM (inactive),20.6 µM (inactive),–,–
N=C(N)Nc1ccc(CC(N)C(=O)NCC(=O)C(CC(=O)O)c2ncc(NC(=O)C(F)(F)F)o2)cc1 (configuration not stated),> 25 µM (inactive),> 25 µM (inactive),> 25 µM (inactive),> 25 µM (inactive),> 25 µM (inactive),> 25 µM (inactive),–,> 25 µM (inactive),> 25 µM (inactive),–,> 25 µM (inactive),–,> 25 µM (inactive),> 25 µM (inactive),> 25 µM (inactive),> 25 µM (inactive),–,> 25 µM (inactive),> 25 µM (inactive),> 25 µM (inactive)
COc1cc(/C=C/c2ccc(O)c(OC)c2)cc(OC)c1,17.7 µM (inactive),30.3 µM (inactive),–,19 µM (inactive),19.5 µM (inactive),27.5 µM (inactive),12.3 µM (inactive),12.6 µM (inactive),34.4 µM (inactive),26.4 µM (inactive),39.9 µM (inactive),25.8 µM (inactive),41.8 µM (inactive),49.7 µM (inactive),30.1 µM (inactive),23.1 µM (inactive),20.9 µM (inactive),23.9 µM (inactive),23.1 µM (inactive),–
O=C(NC(CO)Cc1ccc(Oc2cc(CC(CO)NC(=O)OCc3ccccc3)ccc2OC(=O)OCc2ccccc2)cc1)OCc1ccccc1 (configuration not stated),15.9 µM (inactive),2.94 µM (inactive),19.5 µM (inactive),17.8 µM (inactive),–,16.7 µM (inactive),19.5 µM (inactive),9.82 µM (inactive),23.5 µM (inactive),10.9 µM (inactive),20.3 µM (inactive),4.19 µM (inactive),18.8 µM (inactive),16.1 µM (inactive),26.3 µM (inactive),16.5 µM (inactive),3.32 µM (inactive),–,21 µM (inactive),–
O=C1CCCC2=C1C(c1ccc3c(c1)OCO3)Nc1ccc3ccccc3c12 (configuration not stated),> 100 µM (inactive),> 100 µM (inactive),> 100 µM (inactive),> 100 µM (inactive),> 100 µM (inactive),> 100 µM (inactive),–,–,> 100 µM (inactive),–,> 100 µM (inactive),–,–,> 100 µM (inactive),> 100 µM (inactive),> 100 µM (inactive),–,93.5 µM (inactive),> 100 µM (inactive),> 100 µM (inactive)
Clc1ccc(-c2nc3ccc4ccccc4c3c3c2CCCC3)cc1,> 100 µM (inactive),> 100 µM (inactive),> 100 µM (inactive),97.3 µM (inactive),94.4 µM (inactive),50.5 µM (inactive),–,–,> 100 µM (inactive),> 100 µM (inactive),> 100 µM (inactive),–,–,> 100 µM (inactive),> 100 µM (inactive),> 100 µM (inactive),> 100 µM (inactive),> 100 µM (inactive),> 100 µM (inactive),> 100 µM (inactive)
COc1cc2nc(-c3cccs3)nc(N3C(c4ccc(O)cc4)=NNC(=O)c4ccccc43)c2cc1OC,19.5 µM (inactive),15 µM (inactive),–,26.5 µM (inactive),27.8 µM (inactive),32.4 µM (inactive),–,–,28.7 µM (inactive),17.5 µM (inactive),32.7 µM (inactive),–,28.8 µM (inactive),18.6 µM (inactive),30.4 µM (inactive),24 µM (inactive),–,46.8 µM (inactive),4.54 µM (inactive),18.9 µM (inactive)
CCCC[C@H](CCc1ccccc1)N(C(=O)OC)N1CCC[C@H]1COC,18.7 µM (inactive),31.6 µM (inactive),18.3 µM (inactive),17.1 µM (inactive),15.4 µM (inactive),13.6 µM (inactive),18.6 µM (inactive),46.7 µM (inactive),19.5 µM (inactive),21.7 µM (inactive),20.9 µM (inactive),24.3 µM (inactive),17.5 µM (inactive),14.6 µM (inactive),16.3 µM (inactive),35.1 µM (inactive),24.2 µM (inactive),18.3 µM (inactive),–,–
COc1cc2c(c(OC)c1OC)[C@@H]1CCCCC[C@@H]1CCC2=O,> 100 µM (inactive),31.9 µM (inactive),97.3 µM (inactive),> 58.6 µM (inactive),> 92.5 µM (inactive),57.1 µM (inactive),82.6 µM (inactive),22.9 µM (inactive),76 µM (inactive),28.9 µM (inactive),> 100 µM (inactive),33.3 µM (inactive),> 91.8 µM (inactive),> 100 µM (inactive),> 100 µM (inactive),> 100 µM (inactive),24 µM (inactive),57.5 µM (inactive),–,–
O=S(=O)(c1ccccc1)n1cc(C[P+](c2ccccc2)(c2ccccc2)c2ccccc2)c2ccccc21,12 µM (inactive),0.6 µM (active),2.95 µM (inactive),2.91 µM (inactive),3.79 µM (inactive),3.81 µM (inactive),1.87 µM (inactive),2.04 µM (inactive),5.66 µM (inactive),2.65 µM (inactive),2.08 µM (inactive),5.2 µM (inactive),9.95 µM (inactive),3.36 µM (inactive),4.59 µM (inactive),3.25 µM (inactive),4.91 µM (inactive),1.67 µM (inactive),–,–
